Columns and labels:
RAW264.7 macrophages = assay: Griess assay of nitrite production in media of cultured macrophages; format: cell-based, mouse; settings: LPS stimulation of macrophages, 2D culture
Description: (§1) L929 mouse fibroblasts and RAW264.7 mouse macrophages were fluorescently labelled with red and green […]® (Thermo Fisher Scientific) dyes respectively. Extensive studies were conducted to optimize cell seeding density, culture times, and biomaterial implantation. Cells were co-cultured two-dimensionally or within microfluidic devices described in Example 1, after which cancer spheroids or alginate-based biomaterials were implanted within the two-dimensional cultures and within the microfluidic devices. Immunostaining, fluorescence microscopy, Griess assays, and histological analysis were used to evaluate immune cell activation and fibrosis formation in response to the spheroids and implants. Griess Assays were performed on media collected from cultured cells. […] Co-culture of RAW264.7 and L929 cells were visualized with […]® dyes. […] F-actin visualization for RAW264.7 cells treated with LPS was performed. […] Co-culture of L929 and RAW264.7 cells was performed in the microfluidic device. L929 cells were cultured in 3D within the Matrigel channel, while macrophages were introduced in 2D from an adjacent channel. After 24 hours of co-culture, the cells were primarily retained within their respective channels.

RAW264.7 cells = assay: F-actin visualization of macrophage morphology; format: cell-based, mouse; settings: increasing concentrations of LPS
Description: as §1

[1] = system: L929 cells and primary mouse skin fibroblasts; assay: Scar-in-a-jar immunostaining, effect of L-ascorbic acid type; format: cell-based; settings: cell type not specified for this statement
Description: (§2) Inducing collagen deposition by fibroblasts in a two-dimensional model was studied. To determine whether L929 fibroblasts would deposit collagen in response to stimuli, well plate experiments were conducted following a protocol described in Good et al., “A High Content, Phenotypic ‘Scar-In-A-Jar’ Assay for Rapid Quantification of Collagen Fibrillogenesis Using Disease-Derived Pulmonary Fibroblasts,” BMC Biomedical Engineering, 1:14, 1-10 (2019), which is incorporated by reference herein in its entirety. Immunostaining experiments were carried out on L929 cells and primary mouse skin fibroblasts exposed to media containing L-ascorbic acid, FICOLL®, and TGF-β1. […] These findings indicate the relevance of and effects of cell type and L-ascorbic acid type on in vitro extracellular matrix deposition.

WI-38 human lung cells = assay: Picrosirius red staining of decellularized extracellular matrix; format: cell-based; settings: Permanox plastic 4-chamber slides, 250,000 cells/chamber, with vs without L-ascorbic acid
Description: One method that can be used for visualization and quantification of collagen deposition in the microfluidic device is picrosirius red staining. […] Cells were grown in chambers with or without a fibronectin coating and with or without L-asorbic acid. […] In the absence of a fibronectin coating, no visible collagen deposition remained after 14-15 minutes of decellularization. […] Cells appear to deposit collagen fibers that are retained, even in the absence of a fibronectin coating, with a short decellularization time of five minutes. […]

[2] = system: primary mouse skin fibroblasts; assay: Scar-in-a-jar immunostaining, collagen deposition by fibroblasts in 2D; format: cell-based; settings: media containing L-ascorbic acid, FICOLL and TGF-β1
Description: as §2

L929 cells = assay: as above; format: cell-based, mouse; settings: media containing L-ascorbic acid, FICOLL and TGF-β1
Description: as §2

Molecule: lipopolysaccharide [LPS]
- macrophage activation, as indicated by nitrite production (RAW264.7 macrophages): led to macrophage activation
- morphological changes (F-actin visualization) (RAW264.7 cells): Morphological changes were observed

Molecule: O=C1O[C@H]([C@@H](O)CO)C(O)=C1O [L-ascorbic acid]
- effect of the type of L-ascorbic acid on Collagen I deposition [1]: had some effects
- collagen deposition (picrosirius red) (WI-38 human lung cells): increase in collagen deposition

Molecule: TGF-β1: transforming growth factor beta 1, stimulus for collagen deposition
- Collagen I deposition in response to TGF-β1 treatment [2]: Some increases
- α-SMA expression in response to TGF-β1 treatment [2]: Some increases
- Collagen I deposition in response to TGF-β1 treatment (L929 cells): did not have increased Collagen I deposition
- α-SMA expression (L929 cells): no α-SMA expression
